Laboratory results published in US11890288B2, “Sulfonamide or sulfinamide compound having effect of inducing BRD4 protein degradation and pharmaceutical use thereof” (MITSUBISHI TANABE PHARMA CORPORATION, priority 2020, dated 2024).
pIC50: −log10 of the molar value.

What was measured:
BRD4 protein = BRD4 protein (Homo sapiens (Human), UniProt O60885); experiment: BRD4 protein degradation inducing action in LNCaP cells (immunofluorescence, 6 hr); format: cell-based; details: anti-BRD4 fluorescence intensity
Procedure: The degradation inducing action of the compound of the present invention on BRD4 proteins in cancer cells was evaluated in vitro using human prostate cancer LNCaP cells. LNCaP cells were suspended in 10% FBS/RPMI1640, seeded in a 96 well Cell carrier plate (Perkin Elmer) and cultured at 5% CO2, 37° C. overnight. A test compound dissolved in DMSO was diluted with 10% FBS/RPMI1640 and added and the cells were further cultured for 6 hr. After culturing, the cells were immobilized with 4% para-formaldehyde/PBS and further subjected to a permeation treatment with 0.25% Triton X-100/PBS. Thereafter, the cells were blocked with 10% BSA/PBS, Anti-BRD4 (Sigma-Aldrich) solution was added and the cells were incubated at 4° C. overnight. Furthermore, Goat anti-Rabbit IgG(H+L) Cross-Adsorbed Secondary Antibody, Alexa Fluor 546 (Thermo Fisher Scientific) solution, 0.5 μg/mL Hoechst 33342 (Sigma-Aldrich), and 14 μM Acti-Stain 555 Fluorescent Phalloidin (Cytoskeleton) were added. After incubation for 1 hr, BRD4 protein amount was measured by Operetta (Perkin Elmer) as fluorescence intensity (excitation: 560 nm, emission: 572 nm). The BRD4 protein degradation inducing activity of the compound of the present invention in LNCaP cells is shown in DC50 value in Table 3. The DC50 value is a concentration of the compound showing 50% fluorescence intensity when the fluorescence intensity thereof under compound untreated condition is 100%. It was calculated from the straight line connecting the fluorescence intensity at two points enclosing the 50% fluorescence intensity and the compound concentration.

[1] = system: human prostate cancer LNCaP cells; experiment: Cytotoxic action on LNCaP cells (WST-8, 96 hr); format: cell-based; details: 96 hr culture
Procedure: The cytotoxic action of the compound of the present invention against human cancer cells was evaluated in vitro. In this experiment, (+)-JQ1 (Nature volume 468, pages 1067-1073 (23 Dec. 2010)) known to have an inhibitory activity on the binding of BRD4 protein and a ligand therefor was used as a positive control drug. Respective cells were suspended in 10% FBS/RPMI1640, seeded in a 96 well plate and cultured at 5% CO2, 37° C. overnight. A test compound dissolved in DMSO was diluted with 10% FBS/RPMI1640 and added and the cells were further cultured for 96 hr. After culturing, the viable cell number was measured using a cell number measurement WST-8 kit (Kishida Chemical Co., Ltd.). As a control, the measurement was performed under conditions free of the test compound. The cytotoxic activity of the compound of the present invention against human prostate cancer LNCaP cells is shown in IC50 value in Table 1. The IC50 value is a concentration of the compound showing 50% cell survival rate when the cell survival rate thereof under compound untreated condition is 100%. It was calculated from the straight line connecting the cell survival rate at two points enclosing the 50% cell survival rate and the compound concentration. In addition, the cytotoxic activity against respective cancer cells of human acute myeloid leukemia MV-4-11 cell, human chronic myeloid leukemia K562 cell, human multiple myeloma MM.1S cell, human diffuse large B-cell lymphoma SU-DHL-6 cell, human T-cell leukemia Jurkat cells, human Burkitt lymphoma Raji cell, human castration-resistant prostate cancer PC-3 cell, human AR-V7 positive castration-resistant prostate cancer 22Rv1 cell, human ovarian cancer A2780 cell, human cisplatin-resistant ovarian cancer SK-OV-03 cell, human bladder cancer 5637 cell, human breast cancer ZR-75-1 cell, human triple negative breast cancer MDA-MB-231 cell, human uterus cervix cancer HeLa cell, human uterine sarcoma MES-SA cell, human stomach cancer SNU-16 cell, human non-small cell lung cancer NCI-H2126 cell, human EGFRT790M mutation-positive non-small cell lung cancer NCI-H1975 cell, human small cell lung cancer NCI-H82 cell, human large cell lung cancer NCI-H460 cell, human colon cancer HCT116 cell, human glioma U-87 MG cell, human pancreatic cancer BxPC-3 cell, human liver cancer HLF cell, human bile duct cancer HuCCT1 cell, human renal cell cancer 786-O cell, and human fibrosarcoma HT1080 cell is shown in IC50 value in Table 2.

Compound | DC50 (BRD4 protein) [nM] | pIC50 [1]
CCc1ccc(NS(=O)(=O)c2ccc(CNC(=O)c3ccc(-c4ccc(C5=N[C@@H](CC(=O)OC)c6nnc(C)n6-c6sc(C)c(C)c65)cc4)c(F)c3F)cc2)c2[nH]cc(C#N)c12 [Example Compound 118, methyl [(6S)-4-{4′-[({4-[(3-cyano-4-ethyl-1H-indol-7-yl)sulfamoyl]phenyl}methyl)carbamoyl]-2′,3′-difluoro[1,1′-biphenyl]-4-yl}-2,3,9-trimethyl-6H-thieno[3,2-f][1,2,4]triazolo[4,3-a][1,4]diazepin-6-yl]acetate] | 0.14 | 9.49
Cc1cc(C(=O)NCc2ccc(S(=O)(=O)Nc3ccc(C)c4c(C#N)c[nH]c34)cc2)ccc1-c1ccc(C2=N[C@@H](CC(=O)OC(C)(C)C)c3nnc(C)n3-c3sc(C)c(C)c32)cc1 [Example Compound 144, t-butyl [(6S)-4-{4′-[({4-[(3-cyano-4-methyl-1H-indol-7-yl)sulfamoyl]phenyl}methyl)carbamoyl]-2′-methyl[1,1′-biphenyl]-4-yl}-2,3,9-trimethyl-6H-thieno[3,2-f][1,2,4]triazolo[4,3-a][1,4]diazepin-6-yl]acetate] | 0.59 | 8.92
Cc1sc2c(c1C)C(c1ccc(-c3cc(Cl)c(C(=O)NCc4ccc(S(=O)(=O)Nc5ccc(C)c6c(C#N)c[nH]c56)cc4)cc3F)cc1)=N[C@@H](C)c1nnc(C)n1-2 [Example 71, 5-chloro-N-({4-[(3-cyano-4-methyl-1H-indol-7-yl)sulfamoyl]phenyl}methyl)-2-fluoro-4′-[(6S)-2,3,6,9-tetramethyl-6H-thieno[3,2-f][1,2,4]triazolo[4,3-a][1,4]diazepin-4-yl][1,1′-biphenyl]-4-carboxamide] | 0.32 | 9.21
COC(=O)C[C@@H]1N=C(c2ccc(-c3ccc(C(=O)NCc4ccc(S(=O)(=O)Nc5ccc(C)c6c(C#N)c[nH]c56)cc4)s3)cc2)c2c(sc(C)c2C)-n2c(C)nnc21 [Example 59, methyl [(6S)-4-(4-{5-[({4-[(3-cyano-4-methyl-1H-indol-7-yl)sulfamoyl]phenyl}methyl)carbamoyl]thiophen-2-yl}phenyl)-2,3,9-trimethyl-6H-thieno[3,2-f][1,2,4]triazolo[4,3-a][1,4]diazepin-6-yl]acetate] | 0.22 | 9.64
COC(=O)C[C@@H]1N=C(c2ccc(-c3ccc4oc(C(=O)NCc5ccc(S(=O)(=O)Nc6ccc(C)c7c(C#N)c[nH]c67)cc5)cc4c3)cc2)c2c(sc(C)c2C)-n2c(C)nnc21 [Example 35, methyl [(6S)-4-(4-{2-[({4-[(3-cyano-4-methyl-1H-indol-7-yl)sulfamoyl]phenyl}methyl)carbamoyl]-1-benzofuran-5-yl}phenyl)-2,3,9-trimethyl-6H-thieno[3,2-f][1,2,4]triazolo[4,3-a][1,4]diazepin-6-yl]acetate] | 2.7 | 8.14
COC(=O)C[C@@H]1N=C(c2ccc(-c3ccc(C(=O)NCCc4ccc(S(=O)(=O)Nc5ccc(C)c6c(C#N)c[nH]c56)cc4)c(Cl)c3)cc2)c2c(sc(C)c2C)-n2c(C)nnc21 [Example 41, methyl [(6S)-4-{3′-chloro-4′-[(2-{4-[(3-cyano-4-methyl-1H-indol-7-yl)sulfamoyl]phenyl}ethyl)carbamoyl][1,1′-biphenyl]-4-yl}-2,3,9-trimethyl-6H-thieno[3,2-f][1,2,4]triazolo[4,3-a][1,4]diazepin-6-yl]acetate] | 0.41 | 8.96

Further compounds by falling DC50 (BRD4 protein), results first:

DC50 (BRD4 protein) [nM] | Compound | pIC50 [1]
0.64 | COC(=O)C[C@@H]1N=C(c2ccc(-c3ccc4cc(C(=O)NCc5ccc(S(=O)(=O)Nc6ccc(C)c7c(C#N)c[nH]c67)cc5)sc4c3)cc2)c2c(sc(C)c2C)-n2c(C)nnc21 [Example 62, methyl [(6S)-4-(4-{2-[({4-[(3-cyano-4-methyl-1H-indol-7-yl)sulfamoyl]phenyl}methyl)carbamoyl]-1-benzothiophen-6-yl}phenyl)-2,3,9-trimethyl-6H-thieno[3,2-f][1,2,4]triazolo[4,3-a][1,4]diazepin-6-yl]acetate] | 9.01
0.27 | CCc1ccc(NS(=O)(=O)c2ccc(CNC(=O)c3cc(F)c(-c4ccc(C5=N[C@@H](CC(=O)OC)c6nnc(C)n6-c6sc(C)c(C)c65)cc4)cc3F)cc2)c2[nH]cc(C#N)c12 [Example Compound 119, methyl [(6S)-4-{4′-[({4-[(3-cyano-4-ethyl-1H-indol-7-yl)sulfamoyl]phenyl}methyl)carbamoyl]-2′,5′-difluoro[1,1′-biphenyl]-4-yl}-2,3,9-trimethyl-6H-thieno[3,2-f][1,2,4]triazolo[4,3-a][1,4]diazepin-6-yl]acetate] | 9.35
0.19 | COC(=O)C[C@@H]1N=C(c2ccc(-c3ccc(C(=O)NCCc4ccc(S(=O)(=O)Nc5ccc(C)c6c(C#N)c[nH]c56)cc4)c(F)c3)cc2)c2c(sc(C)c2C)-n2c(C)nnc21 [Example 40, methyl [(6S)-4-{4′-[(2-{4-[(3-cyano-4-methyl-1H-indol-7-yl)sulfamoyl]phenyl}ethyl)carbamoyl]-3′-fluoro[1,1′-biphenyl]-4-yl}-2,3,9-trimethyl-6H-thieno[3,2-f][1,2,4]triazolo[4,3-a][1,4]diazepin-6-yl]acetate] | 9.38
0.12 | Cc1sc2c(c1C)C(c1ccc(-c3ccc(C(=O)NCc4ccc(S(=O)(=O)Nc5ccc(C)c6c(C#N)c[nH]c56)cc4)nn3)cc1)=N[C@@H](CC(=O)OC(C)(C)C)c1nnc(C)n1-2 [Example Compound 150, t-butyl [(6S)-4-(4-{6-[({4-[(3-cyano-4-methyl-1H-indol-7-yl)sulfamoyl]phenyl}methyl)carbamoyl]pyridazin-3-yl}phenyl)-2,3,9-trimethyl-6H-thieno[3,2-f][1,2,4]triazolo[4,3-a][1,4]diazepin-6-yl]acetate] | 9.37
0.098 | COC(=O)C[C@@H]1N=C(c2ccc(-c3cc(C)c(C(=O)N[C@H](C)c4ccc(S(=O)(=O)Nc5ccc(C)c6c(C#N)c[nH]c56)cc4)cc3F)cc2)c2c(sc(C)c2C)-n2c(C)nnc21 [Example 98, methyl [(6S)-4-(4′-{[(1R)-1-{4-[(3-cyano-4-methyl-1H-indol-7-yl)sulfamoyl]phenyl}ethyl]carbamoyl}-2′-fluoro-5′-methyl[1,1′-biphenyl]-4-yl)-2,3,9-trimethyl-6H-thieno[3,2-f][1,2,4]triazolo[4,3-a][1,4]diazepin-6-yl]acetate] | 9.66
0.095 | CCc1ccc(NS(=O)(=O)c2ccc(CCNC(=O)c3ccc(-c4ccc(C5=N[C@@H](CC(=O)OC)c6nnc(C)n6-c6sc(C)c(C)c65)cc4)c(F)c3)cc2)c2[nH]cc(C#N)c12 [Example Compound 124, methyl [(6S)-4-{4′-[(2-{4-[(3-cyano-4-ethyl-1H-indol-7-yl)sulfamoyl]phenyl}ethyl)carbamoyl]-2′-fluoro[1,1′-biphenyl]-4-yl}-2,3,9-trimethyl-6H-thieno[3,2-f][1,2,4]triazolo[4,3-a][1,4]diazepin-6-yl]acetate] | 9.57
0.063 | CCc1ccc(NS(=O)(=O)c2ccc(CCNC(=O)c3ccc(-c4ccc(C5=N[C@@H](CC(=O)OC)c6nnc(C)n6-c6sc(C)c(C)c65)cc4)cn3)cc2)c2[nH]cc(C#N)c12 [Example 110, methyl [(6S)-4-(4-{6-[(2-{4-[(3-cyano-4-ethyl-1H-indol-7-yl)sulfamoyl]phenyl}ethyl)carbamoyl]pyridin-3-yl}phenyl)-2,3,9-trimethyl-6H-thieno[3,2-f][1,2,4]triazolo[4,3-a][1,4]diazepin-6-yl]acetate] | 9.55
